Source: DBAASP
In brackets after ≈: the same amount, converted by molar mass.

Assays:
Test in all cases: ≥ marks a high value that may be exact or a test limit, other limits are often not marked, values filed in µg/mL are converted to µM
[1] = system: Candida glabrata ATCC 90030
Candida krusei ATCC 6258 = system: Candida krusei ATCC 6258
[2] = system: Enterobacter cloacae ATCC 13047
[3] = system: Pseudomonas aeruginosa ATCC 27853
[4] = system: Staphylococcus aureus ATCC 29213
[5] = system: Staphylococcus epidermidis ATCC 12228
[6] = system: Enterococcus faecalis ATCC 4028
[7] = system: Candida albicans ATCC 90028
[8] = system: Escherichia coli ATCC 25922
[9] = system: Agrobacterium tumefaciens GV3101
Methylobacterium sp. = system: Methylobacterium sp.
Xanthomonas citri = system: Xanthomonas citri
[10] = system: Sinorhizobium meliloti USDA 1002
Escherichia coli UB1005 = system: Escherichia coli UB1005
[11] = system: Salmonella enterica subsp. enterica serovar Typhi CMCC 50071
[12] = system: Listeria monocytogenes CMCC 54004
[13] = system: Salmonella enterica subsp. enterica serovar Pullorum C79-13
[14] = system: Staphylococcus aureus ATCC 12600
[15] = system: Escherichia coli ATCC 11775
[16] = system: Micrococcus luteus ATCC 49732
[17] = system: Candida albicans ATCC 14053
Escherichia coli D21 = system: Escherichia coli D21
[18] = system: Serratia marcescens ATCC 8100
Bacillus megaterium Bm11 = system: Bacillus megaterium Bm11
Escherichia coli ML-35 = system: Escherichia coli ML-35
[19] = system: Salmonella enterica subsp. enterica serovar Typhimurium ATCC 14028
[20] = system: Streptococcus mutans KCTC 3065
[21] = system: Trichosporon beigelii KCTC 7707
[22] = system: Salmonella enterica subsp. enterica serovar Enteritidis ATCC 13076
[23] = system: Malassezia furfur KCTC 7744
[24] = system: Staphylococcus epidermidis KCTC 1917
Escherichia coli BW25113 = system: Escherichia coli BW25113
[25] = system: Enterococcus faecalis ATCC 29212
[26] = system: Salmonella typhimurium KCTC 1926
[27] = system: Aspergillus flavus KCTC 6905
[28] = system: Candida parapsilosis ATCC 22019
[29] = system: Aspergillus fumigatus KCTC 6145
[30] = system: Enterococcus faecium ATCC 19434
[31] = system: Staphylococcus aureus ATCC 25923
[32] = system: Klebsiella pneumoniae ATCC 13883
Bacillus subtilis = system: Bacillus subtilis
[33] = system: Streptococcus pyogenes ATCC 19615
Escherichia coli = system: Escherichia coli
[34] = system: Staphylococcus aureus ATCC BAA-44
[35] = system: Staphylococcus epidermidis ATCC 51625

For `CC[C@H](C)[C@H](NC(=O)[C@H](CC(C)C)NC(=O)[C@H](CCCCN)NC(=O)[C@H](CCCCN)NC(=O)[C@@H](NC(=O)[C@H](CC(C)C)NC(=O)[C@H](CCCCN)NC(=O)[C@@H]1CCCN1C(=O)[C@@H](NC(=O)[C@H](CC(C)C)NC(=O)[C@H](CCCCN)NC(=O)[C@H](Cc1ccccc1)NC(=O)[C@@H](N)Cc1ccccc1)[C@@H](C)CC)C(C)C)C(=O)N[C@@H](CCCCN)C(=O)N[C@@H](C)C(=O)N[C@@H](Cc1ccccc1)C(=O)N[C@@H](CCCCN)C(N)=O` [FFKLIPKLVKKLIKAFK], which MIC [1] is on record?
The MIC was 4.7 µM (≈ 9.69 µg/mL).

And the MIC (Candida krusei ATCC 6258)?
Its MIC is 4.7 µM (≈ 9.69 µg/mL).

And the MIC [2]?
Its MIC is 4.7 µM (≈ 9.69 µg/mL).

What about the MIC [3] of the same compound?
Its MIC is 2.3 µM (≈ 4.74 µg/mL).

And the MIC [4]?
Its MIC is 2.3 µM (≈ 4.74 µg/mL).

What about the MIC [5] of the same compound?
The MIC was 2.3 µM (≈ 4.74 µg/mL).

And the MIC [6]?
Its MIC is 1.2 µM (≈ 2.47 µg/mL).

And the MIC [7]?
Its MIC is 4.7 µM (≈ 9.69 µg/mL).

What about the MIC [8] of the same compound?
Its MIC is 1.2 µM (≈ 2.47 µg/mL).

What does the source list for `CC[C@H](C)[C@H](NC(=O)[C@H](C)NC(=O)[C@H](CCCCN)NC(=O)[C@@H](NC(=O)[C@H](CC(C)C)NC(=O)[C@H](C)NC(=O)[C@H](CCCCN)NC(=O)[C@H](Cc1ccccc1)NC(=O)[C@@H](NC(=O)[C@H](C)NC(=O)[C@H](CCCCN)NC(=O)CNC(=O)[C@@H](NC(=O)[C@H](CCCCN)NC(=O)[C@@H](NC(=O)[C@@H](NC(=O)[C@H](Cc1ccccc1)NC(=O)[C@H](CCCCN)NC(=O)[C@H](CC(C)C)NC(=O)[C@H](CC(C)C)NC(=O)[C@@H](N)CCCCN)C(C)C)[C@@H](C)O)C(C)C)[C@@H](C)CC)[C@@H](C)CC)C(=O)O` [KLLKFVTKVGKAIFKALIKAI]?
MIC [9]: 3 µM (≈ 6.99 µg/mL); MIC (Methylobacterium sp.): 3 µM (≈ 6.99 µg/mL); MIC (Xanthomonas citri): 3 µM (≈ 6.99 µg/mL); MIC [10]: 3 µM (≈ 6.99 µg/mL)

`CC(C)C[C@H](NC(=O)[C@H](CCC(N)=O)NC(=O)[C@@H]1CCCN1C(=O)[C@@H](NC(=O)[C@H](CCCCN)NC(=O)[C@H](Cc1ccc(O)cc1)NC(=O)[C@H](CCCCN)NC(=O)[C@H](CCCCN)NC(=O)[C@H](CC(C)C)NC(=O)[C@H](CCCN=C(N)N)NC(=O)[C@@H](N)CC(C)C)C(C)C)C(=O)O` [LRLKKYKVPQL] was tested. Which MIC (Escherichia coli UB1005) did it give?
Its MIC is at least 128 µM.

What about the MIC [11] of the same compound?
Its MIC is at least 256 µM.

And the MIC [12]?
Its MIC is at least 64 µM.

What about the MIC [4] of the same compound?
Its MIC is 640 µM (≈ 887 µg/mL).

And the MIC [13]?
Its MIC is at least 256 µM.

What about the MIC [8] of the same compound?
The MIC was 64 µM (≈ 88.7 µg/mL).

Which results are given for `CC(C)[C@H](NC(=O)[C@H](C)NC(=O)[C@H](C)NC(=O)CNC(=O)[C@@H]1CCCN1)C(=O)N[C@@H](Cc1ccccc1)C(=O)N[C@@H](CCCCN)C(=O)O` [PGAAVFK]?
MIC [14]: 12 µM (≈ 8.27 µg/mL); MIC [15]: 12 µM (≈ 8.27 µg/mL); MIC [16]: ≥ 36 µM; MIC [17]: ≥ 36 µM

`CC(C)C[C@H](NC(=O)[C@H](Cc1ccc(O)cc1)NC(=O)[C@@H]1CCCN1C(=O)[C@@H]1CCCN1C(=O)[C@H](CCCN=C(N)N)NC(=O)[C@@H]1CCCN1C(=O)[C@H](CCCN=C(N)N)NC(=O)[C@H](CCCN=C(N)N)NC(=O)[C@@H](N)CCCN=C(N)N)C(=O)N1CCC[C@H]1C(=O)N1CCC[C@H]1C(=O)N[C@@H](CCCN=C(N)N)C(=O)N[C@@H](CCCN=C(N)N)C(=O)N1CCC[C@H]1C(=O)N1CCC[C@H]1C(=O)O` [RRRPRPPYLPPRRPP] was tested. Which MIC (Escherichia coli D21) did it give?
Its MIC is 16 µM (≈ 30.6 µg/mL).

And the MIC [18]?
The MIC was at least 32 µM.

What about the MIC (Bacillus megaterium Bm11) of the same compound?
The MIC was at least 32 µM.

What about the MIC (Escherichia coli ML-35) of the same compound?
Its MIC is at least 32 µM.

And the MIC [5]?
Its MIC is over 64 µM.

What about the MIC [19] of the same compound?
Its MIC is 8 µM (≈ 15.3 µg/mL).

What does the source list for `CC(C)C[C@H](NC(=O)[C@H](CCCCN)NC(=O)[C@H](CC(C)C)NC(=O)[C@H](CC(N)=O)NC(=O)[C@H](CC(C)C)NC(=O)[C@H](CCCCN)NC(=O)[C@H](CS)NC(=O)[C@@H]1CCCN1C(=O)[C@@H](N)Cc1ccc(O)cc1)C(=O)NCC(=O)N[C@@H](CCCCN)C(=O)N[C@H](C(=O)N1CCC[C@H]1C(=O)N[C@@H](Cc1ccccc1)C(=O)N[C@@H](Cc1cnc[nH]1)C(N)=O)C(C)C` [YPCKLNLKLGKVPFH]?
MIC [20]: 5 µM (≈ 8.78 µg/mL); MIC [21]: 5 µM (≈ 8.78 µg/mL); MIC [22]: 5 µM (≈ 8.78 µg/mL); MIC [3]: 10 µM (≈ 17.6 µg/mL); MIC [23]: 5 µM (≈ 8.78 µg/mL); MIC [24]: 5 µM (≈ 8.78 µg/mL); MIC (Escherichia coli BW25113): 5 µM (≈ 8.78 µg/mL); MIC [25]: 2.5 µM (≈ 4.39 µg/mL); MIC [26]: 5 µM (≈ 8.78 µg/mL); MIC [27]: 10 µM (≈ 17.6 µg/mL); MIC [28]: 5 µM (≈ 8.78 µg/mL); MIC [29]: 10 µM (≈ 17.6 µg/mL); MIC [7]: 10 µM (≈ 17.6 µg/mL); MIC [30]: 2.5 µM (≈ 4.39 µg/mL)

With `CC(C)C[C@H](NC(=O)[C@H](CO)NC(=O)[C@H](CCCN=C(N)N)NC(=O)[C@H](CCCCN)NC(=O)[C@@H](NC(=O)[C@@H](NC(=O)CNC(=O)[C@H](CCCN=C(N)N)NC(=O)[C@H](Cc1cnc[nH]1)NC(=O)[C@H](Cc1c[nH]c2ccccc12)NC(=O)[C@H](Cc1ccccc1)NC(=O)[C@H](Cc1cnc[nH]1)NC(=O)[C@H](Cc1ccc(O)cc1)NC(=O)[C@@H](N)Cc1ccc(O)cc1)C(C)C)[C@@H](C)O)C(=O)N[C@@H](CO)C(=O)N1CCC[C@H]1C(=O)N[C@@H](Cc1cnc[nH]1)C(=O)N[C@@H](CCCN=C(N)N)C(=O)N1CCC[C@H]1C(=O)N[C@@H](CCCN=C(N)N)C(=O)O` [YYHFWHRGVTKRSLSPHRPR] as the compound, how does the MIC [31] read?
The MIC was 6 µM (≈ 15.5 µg/mL).

And the MIC [3]?
Its MIC is 8 µM (≈ 20.6 µg/mL).

What about the MIC [25] of the same compound?
The MIC was 6 µM (≈ 15.5 µg/mL).

And the MIC [32]?
The MIC was 6 µM (≈ 15.5 µg/mL).

And the MIC (Bacillus subtilis)?
The MIC was 6 µM (≈ 15.5 µg/mL).

What about the MIC [33] of the same compound?
The MIC was 15 µM (≈ 38.7 µg/mL).

And the MIC (Escherichia coli)?
Its MIC is 6 µM (≈ 15.5 µg/mL).

What about the MIC [34] of the same compound?
The MIC was 30 µM (≈ 77.4 µg/mL).

What about the MIC [19] of the same compound?
Its MIC is 8 µM (≈ 20.6 µg/mL).

What about the MIC [35] of the same compound?
The MIC was 30 µM (≈ 77.4 µg/mL).
